# From patent US6596687B1, “Cell adhesion inhibitors” (Biogen, Inc., priority 1995, dated 2003)
# Read-outs that look alike come from different tables or passages of the source. Numbered stars: 1 amine (or outer) side, 2 acyl side, 3 side chain; on linkers, the order of the positions; unused ones are H or OH. Peptide text beside a SMILES is read from it. * marks the point of attachment. Suc = O=C(CCC(=O)[*:2])[*:1]; NHPh = c1ccc(N*)cc1
# Target: T1, VLA4 (Homo sapiens, UniProt P05556+P13612)
# T1 construct: endogenous in cells; host or cells: Ramos cells
# T1 sequence (P13612 34-1032): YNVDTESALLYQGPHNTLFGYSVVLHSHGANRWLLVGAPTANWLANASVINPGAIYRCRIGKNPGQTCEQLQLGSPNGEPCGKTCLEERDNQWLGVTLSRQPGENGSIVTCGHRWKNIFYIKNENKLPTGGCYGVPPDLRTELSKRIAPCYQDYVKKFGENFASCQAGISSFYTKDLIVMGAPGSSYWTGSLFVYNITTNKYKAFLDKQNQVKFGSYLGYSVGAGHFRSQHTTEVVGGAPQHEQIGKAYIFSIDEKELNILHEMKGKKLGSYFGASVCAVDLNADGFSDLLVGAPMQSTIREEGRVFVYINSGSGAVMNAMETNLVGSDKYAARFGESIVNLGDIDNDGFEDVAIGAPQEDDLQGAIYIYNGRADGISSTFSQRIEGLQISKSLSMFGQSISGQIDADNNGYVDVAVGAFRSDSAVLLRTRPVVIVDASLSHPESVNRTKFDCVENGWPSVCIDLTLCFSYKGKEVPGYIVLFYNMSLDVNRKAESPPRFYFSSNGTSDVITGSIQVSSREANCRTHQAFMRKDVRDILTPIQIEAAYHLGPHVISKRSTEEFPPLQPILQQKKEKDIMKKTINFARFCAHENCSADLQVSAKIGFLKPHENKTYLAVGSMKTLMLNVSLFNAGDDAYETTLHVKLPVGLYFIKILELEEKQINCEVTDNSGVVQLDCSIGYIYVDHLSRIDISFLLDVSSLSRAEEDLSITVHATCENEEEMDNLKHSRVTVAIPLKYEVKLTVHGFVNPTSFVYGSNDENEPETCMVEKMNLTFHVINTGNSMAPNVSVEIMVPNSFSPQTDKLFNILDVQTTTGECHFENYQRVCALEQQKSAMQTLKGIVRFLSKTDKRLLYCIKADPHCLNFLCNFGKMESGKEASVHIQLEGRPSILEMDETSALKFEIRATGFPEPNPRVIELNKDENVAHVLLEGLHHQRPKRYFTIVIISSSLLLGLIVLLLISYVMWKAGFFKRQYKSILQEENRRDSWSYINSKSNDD
# T1 sequence (P05556 21-798): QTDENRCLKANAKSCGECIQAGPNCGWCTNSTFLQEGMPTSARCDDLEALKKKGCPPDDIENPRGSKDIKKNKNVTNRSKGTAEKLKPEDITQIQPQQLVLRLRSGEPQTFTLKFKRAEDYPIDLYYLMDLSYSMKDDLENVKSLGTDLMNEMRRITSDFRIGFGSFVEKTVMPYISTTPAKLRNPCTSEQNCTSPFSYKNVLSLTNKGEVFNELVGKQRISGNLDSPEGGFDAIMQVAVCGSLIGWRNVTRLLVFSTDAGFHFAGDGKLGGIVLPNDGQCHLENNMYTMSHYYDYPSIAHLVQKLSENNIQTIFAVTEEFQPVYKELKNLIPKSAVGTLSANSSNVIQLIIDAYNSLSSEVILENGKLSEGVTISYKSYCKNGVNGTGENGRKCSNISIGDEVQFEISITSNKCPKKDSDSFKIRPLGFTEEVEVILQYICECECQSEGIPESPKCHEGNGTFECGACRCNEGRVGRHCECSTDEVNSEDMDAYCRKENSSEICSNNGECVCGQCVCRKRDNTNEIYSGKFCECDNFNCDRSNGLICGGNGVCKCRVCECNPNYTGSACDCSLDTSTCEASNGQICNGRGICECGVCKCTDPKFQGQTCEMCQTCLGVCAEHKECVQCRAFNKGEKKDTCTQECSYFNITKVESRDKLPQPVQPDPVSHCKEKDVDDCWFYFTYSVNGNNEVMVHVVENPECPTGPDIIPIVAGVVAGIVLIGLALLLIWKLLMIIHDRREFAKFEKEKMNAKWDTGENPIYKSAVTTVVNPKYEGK
# Assay: Inhibition of VLA4-dependent adhesion of Ramos cells to BSA-CS1
# Format: cell-based
# Excerpt: For example, the cell adhesion inhibitory activity of these compounds may be measured by determining the concentration of inhibitor required to block the binding of VLA-4-expressing cells to fibronectin- or CS1-coated plates. In this assay microtiter wells are coated with either fibronectin (containing the CS1-sequence) or CS-1. If CS-1 is used, it must be conjugated to a carrier protein, such as bovine serum albumin, in order to bind to the wells. Once the wells are coated, varying concentrations of the test compound are then added together with appropriately labelled, VLA-4-expressing cells. Alternatively, the test compound may be added first and allowed to incubate with the coated wells prior to the addition of the cells. The cells are allowed to incubate in the wells for at least 30 minutes. Following incubation, the wells are emptied and washed. Inhibition of binding is measured by quantitating the fluorescence or radioactivity bound to the plate for each of the various concentrations of test compound, as well as for controls containing no test compound.
# VLA-4-expressing cells that may be utilized in this assay include Ramos cells, Jurkat cells, A375 melanoma cells, as well as human peripheral blood lymophocytes (PBLs). The cells used in this assay may be fluorescently or radioactively labelled.
# This assay was used to assess the potency of VLA4-directed inhibitory compounds of this invention. 1.
# We dissolved BSA-SMCC (Pierce Chemical, Rockford, Ill.; Catalog #77115) in H2O at a concentration of 10 mg/mL. [SEQ ID NO:4]: […](“Cys-Tyr-CS1 peptide”), which we synthesized by conventional solid phase chemistry and purified by HPLC, was dissolved in 10 mM HEPES pH 5, 50 mM NaCl and 0.1 mM EDTA also at a concentration of 10 mg/mL. We then mixed 500 μL of BSA-SMCC, 250 μL of Cys-Tyr-CS1 peptide and 75 μL of 1 mM HEPES pH 7.5 and allowed the conjugation reaction to proceed for 30 minutes. We stopped the reaction by adding 1 μL of beta-mercaptoethanol. Samples were analyzed for cross-linking by SDS-PAGE.
# We coated the wells of a Linbro titertek polystyrene 96-well flat bottom plate (Flow Laboratories, Maclean, Va.; catalog #76-231-05) with 100 μL of the above-described BSA-CS1 solution diluted to 1 μg/mL in 0.05 M NaHCO3 (15 mM NaHCO3, 35 mM Na2CO3) pH 9.2. Some wells were not coated with CS1 in order to assess non-specific cell binding (NSB). The plate was then incubated overnight at 4° C.
# Following this incubation, the contents of the wells were removed by inverting and blotting the plate. All of the wells were then blocked with 100 μL of 1% BSA in PBS, 0.02% NaN3, for a minimum of one hour at room temperature.
# Ramos cells are grown, maintained and labelled in RPMI 1640 culture medium containing 1% BSA. Just prior to running the assay, we added 2′, 7′-bis-(2-carboxyethyl)-5(and -6)carboxyfluorescein acetoxymethyl ester (“BCECF-AM”; Molecular Probes Inc., Eugene, Oregon; catalog #B-1150) to a final concentration of 2 μM to a culture of Ramos cells (4×10^6 cells/mL). We incubated the cells for 20 minutes at 37° C.
# Following labelling, the cells were washed twice in assay buffer (24 mM TRIS, 137 mM NaCl, 2.7 mM KCl, pH 7.4, containing 0.1 BSA and 2mM glucose) to remove any cations originating from the culture medium. The cells were then resuspended in assay buffer to 4×10^6 cells/mL and 2 mM MnCl2 was added to upregulate VLA4 on the surface of the cells.
# Immediately prior to running the assay, we removed the BSA blocking solution from the 96-well plates and washed the wells with 100 μL of assay buffer. We then added to each well 25 μL of test cell adhesion inhibitory compound at 2×the final concentration and 25 μL of the labelled Ramos cells. […] Each concentration of compound was tested in triplicate. The compound and cells are allowed to incubate for 30 minutes at room temperature.
# [1] = Ramos cells, BSA-CS1 coated wells, 2 mM MnCl2, 30 minutes at room temperature, read-out: IC50
IC50 [1],SMILES,IC50
> 10 µM,CC(C)C[C@H](NC(=O)C1(N)CCc2ccccc2C1)C(=O)N[C@@H](CC(=O)O)C(=O)N[C@H](C(=O)O)C(C)C (stereo partly shown) [Compound 67] (HELM PEPTIDE1{[NC1(C(=O)[*:2])CCc2ccccc2C1].L.D.V}$$$$V2.0),
> 10 µM,CC(C)[C@H](NC(=O)[C@H](CC(=O)O)NC(=O)OC(C)(C)C)C(=O)O [Compound 68] (HELM PEPTIDE1{[CC(C)(C)OC(=O)[*:2]].D.V}$$$$V2.0),
> 10 µM,CC(C)C[C@H](NC(=O)c1cc2ccccc2cn1)C(=O)N[C@@H](CC(=O)O)C(=O)N[C@H](C(=O)O)C(C)C [Compound 69],
> 10 µM,CC(C)[C@H](NC(=O)[C@H](CC(=O)O)NC(=O)c1cc2ccccc2cn1)C(=O)O [Compound 70],
> 10 µM,CC(C)[C@H](NC(=O)[C@H](CC(=O)O)NC(=O)C1Cc2ccccc2CN1)C(=O)O (stereo partly shown) [Compound 71] (HELM PEPTIDE1{[O=C(C1Cc2ccccc2CN1)[*:2]].D.V}$$$$V2.0),
> 10 µM,CC(C)C[C@H](NC(=O)C1CCc2ccccc2C1)C(=O)N[C@@H](CC(=O)O)C(=O)N[C@H](C(=O)O)C(C)C (stereo partly shown) [Compound 73],
> 10 µM,CC(C)[C@H](NC(=O)[C@H](CC(=O)O)NC(=O)C1CCc2ccccc2C1)C(=O)O (stereo partly shown) [Compound 75],
> 10 µM,CC(C)[C@H](NC(=O)[C@H](CC(=O)O)NC(=O)CCCCc1ccccc1)C(=O)O [Compound 76],
> 10 µM,CC(C)C[C@H](NC(=O)c1ccccn1)C(=O)N[C@@H](CC(=O)O)C(=O)N[C@H](C(=O)O)C(C)C [Compound 77],
> 10 µM,CC(C)[C@H](NC(=O)[C@H](CC(=O)O)NC(=O)c1ccccn1)C(=O)O [Compound 78],
> 10 µM,CC(C)C[C@H](NC(=O)C1CCOC1)C(=O)N[C@@H](CC(=O)O)C(=O)N[C@H](C(=O)O)C(C)C (stereo partly shown) [Compound 79],
> 10 µM,CC(C)C[C@H](NC(=O)C1CCCO1)C(=O)N[C@@H](CC(=O)O)C(=O)N[C@H](C(=O)O)C(C)C (stereo partly shown) [Compound 80],
> 10 µM,CC(C)[C@H](NC(=O)[C@H](CC(=O)O)NC(=O)[C@H](Cc1ccccc1)NC(=O)c1cc2ccccc2cn1)C(=O)O [Compound 81],
> 10 µM,O=C(O)C[C@H](NC(=O)c1cc2ccccc2cn1)C(=O)N[C@@H](Cc1ccccc1)C(=O)O [Compound 87],
> 10 µM,CC(C)C[C@H](NC(=O)[C@H](CC(=O)O)NC(=O)C1Cc2ccccc2CN1)C(=O)O (stereo partly shown) [Compound 88] (HELM PEPTIDE1{[O=C(C1Cc2ccccc2CN1)[*:2]].D.L}$$$$V2.0),
> 10 µM,CC(C)C[C@H](NC(=O)[C@H](CC(=O)O)NC(=O)c1cc2ccccc2cn1)C(=O)O [Compound 89],
> 10 µM,CC(C)C[C@H](NC(=O)[C@H](CC(=O)O)NC(=O)[C@H](CC(C)C)NC(=O)C1Cc2ccccc2CN1)C(=O)O (stereo partly shown) [Compound 90] (HELM PEPTIDE1{[O=C(C1Cc2ccccc2CN1)[*:2]].L.D.L}$$$$V2.0),
> 10 µM,CC(C)C[C@H](NC(=O)[C@H](CC(=O)O)NC(=O)[C@H](CC(C)C)NC(=O)c1cc2ccccc2cn1)C(=O)O [Compound 91],
> 10 µM,CC(C)C[C@H](NC(=O)C1Cc2ccccc2CN1)C(=O)N[C@@H](CC(=O)O)C(=O)N[C@@H](Cc1ccccc1)C(=O)O (stereo partly shown) [Compound 92] (HELM PEPTIDE1{[O=C(C1Cc2ccccc2CN1)[*:2]].L.D.F}$$$$V2.0),
> 10 µM,CC(C)C[C@H](NC(=O)c1cc2ccccc2cn1)C(=O)N[C@@H](CC(=O)O)C(=O)N[C@@H](Cc1ccccc1)C(=O)O [Compound 93],
> 10 µM,CC(C)C[C@H](NC(=O)c1ccc2ccccc2n1)C(=O)N[C@@H](CC(=O)O)C(=O)N[C@H](C(=O)O)C(C)C [Compound 94],
> 10 µM,CC(C)C[C@H](NC(=O)CC(c1ccccc1)c1ccccc1)C(=O)N[C@@H](CC(=O)O)C(=O)N[C@H](C(=O)O)C(C)C [Compound 95],

IC50 [1],SMILES,IC50
> 10 µM,CC(C)[C@H](NC(=O)[C@H](CC(=O)O)NC(=O)[C@H](C)NC(=O)C1Cc2ccccc2CN1)C(=O)O (stereo partly shown) [Compound 96] (HELM PEPTIDE1{[O=C(C1Cc2ccccc2CN1)[*:2]].A.D.V}$$$$V2.0),
> 10 µM,CC(C)[C@H](NC(=O)[C@H](CC(=O)O)NC(=O)[C@H](C)NC(=O)c1cc2ccccc2cn1)C(=O)O [Compound 97],
> 10 µM,CC(C)C[C@H](NC(=O)CCCCc1ccccc1)C(=O)N[C@@H](CC(=O)O)C(=O)N[C@H](C(=O)O)C(C)C [Compound 98],
> 10 µM,CC(C)C[C@H](NC(=O)c1cc2ccccc2[nH]1)C(=O)N[C@@H](CC(=O)O)C(=O)N[C@H](C(=O)O)C(C)C [Compound 99],
> 10 µM,CC(C)CNC(=O)[C@H](CC(=O)O)NC(=O)[C@H](CC(C)C)NC(=O)CCc1ccc(O)cc1 [Compound 100],
> 10 µM,CC(C)CNC(=O)[C@H](CC(=O)O)NC(=O)[C@H](CC(C)C)NC(=O)c1ccccc1 [Compound 101],
> 10 µM,CC(C)CCNC(=O)[C@H](CC(=O)O)NC(=O)[C@H](CC(C)C)NC(=O)CCCCc1ccccc1 [Compound 102],
> 10 µM,CC(C)CCNC(=O)[C@H](CC(=O)O)NC(=O)[C@H](CC(C)C)NC(=O)CCc1ccc(O)cc1 [Compound 103],
> 10 µM,CC(C)C[C@H](NC(=O)CCCCCc1ccccc1)C(=O)N[C@@H](CC(=O)O)C(=O)N[C@H](C(=O)O)C(C)C [Compound 104],
> 10 µM,CC(C)C[C@H](NC(=O)c1ccccc1)C(=O)N[C@@H](CC(=O)O)C(=O)N[C@H](C(=O)O)C(C)C [Compound 105] (HELM PEPTIDE1{[O=C(c1ccccc1)[*:2]].L.D.V}$$$$V2.0),
> 10 µM,CC(C)CNC(=O)[C@H](CC(=O)O)NC(=O)[C@H](CC(C)C)NC(=O)CCCCc1ccccc1 [Compound 106],
> 10 µM,CC(C)C[C@H](NC(=O)CCC(=O)Nc1ccccc1)C(=O)N[C@@H](CC(=O)O)C(=O)N[C@H](C(=O)O)C(C)C [Compound 107] ({NHPh-Suc}-Leu-Asp-Val-OH),
> 10 µM,CC(C)C[C@H](NC(=O)CCC(=O)Nc1ccc(F)cc1)C(=O)N[C@@H](CC(=O)O)C(=O)N[C@H](C(=O)O)C(C)C [Compound 108],
> 10 µM,CC(C)C[C@H](NC(=O)CCC(=O)N(C)c1ccccc1)C(=O)N[C@@H](CC(=O)O)C(=O)N[C@H](C(=O)O)C(C)C [Compound 109],
> 10 µM,CC(C)CCNC(=O)[C@H](CC(=O)O)NC(=O)[C@H](CC(C)C)NC(=O)C1CCc2ccccc2N1 (stereo partly shown) [Compound 110],
> 10 µM,CC(C)CNC(=O)[C@H](CC(=O)O)NC(=O)[C@H](CC(C)C)NC(=O)CCC(=O)Nc1ccccc1 [Compound 111],
> 10 µM,CC(C)C[C@@H](C(=O)N[C@@H](CC(=O)O)C(=O)N[C@H](C(=O)O)C(C)C)N(C)C(=O)c1ccccc1 [Compound 113] (HELM PEPTIDE1{[O=C(c1ccccc1)[*:2]].[meL].D.V}$$$$V2.0),
,CC(C)C[C@H](NC(=O)C1CCc2ccccc2N1)C(=O)N[C@@H](CC(=O)O)C(=O)N[C@H](C(=O)N1CCC(c2ccccc2)CC1)C(C)C (stereo partly shown) [Compound 115],> 10 µM
> 10 µM,CCCCCCNC(=O)[C@H](CC(=O)O)NC(=O)[C@H](CC(C)C)NC(=O)CCc1ccc(O)cc1 [Compound 116],
> 10 µM,CC(C)C[C@H](NC(=O)CCc1ccc(O)cc1)C(=O)N[C@@H](CC(=O)O)C(=O)N(CC(C)C)CC(C)C [Compound 117],
> 10 µM,CCCCCCNC(=O)[C@@H](NC(=O)[C@H](CC(=O)O)NC(=O)[C@H](CC(C)C)NC(=O)CCc1ccc(O)cc1)C(C)C [Compound 119],
